Experimental data from ChEMBL document CHEMBL1201862, “PubChem BioAssay data set” (2004).
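All cell lines were grown in 96-well plates and treated with compound for 48 hours. GI50 = concentration required for 50% inhibition of growth.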 The source made the active and inactive calls. Cut-off read from the data, not from the text of the source: active = GI50 up to about 1.1 µM and inactive = higher.

Experiments:
Experiment in all cases: NCI anticancer screen, dose series, 48 h
HOP-18 = system: HOP-18
LXFL 529 = system: LXFL 529
KM-20L2 = system: KM-20L2
DMS-114 = system: DMS-114
RXF 631 = system: RXF 631
DLD-1 = system: DLD-1
M19-MEL = system: M19-MEL
SNB-78 = system: SNB-78
XF498 = system: XF498

SMILES | GI50 (HOP-18) | GI50 (LXFL 529) | GI50 (KM-20L2) | GI50 (DMS-114) | GI50 (RXF 631) | GI50 (DLD-1) | GI50 (M19-MEL) | GI50 (SNB-78) | GI50 (XF498)
Cc1nc2c(nc1C)C(=O)c1ccccc1C2=O | 3.29 µM (inactive) | 24.4 µM (inactive) | 17.7 µM (inactive) | 9.64 µM (inactive) | 11.9 µM (inactive) | 14.9 µM (inactive) | 0.258 µM (active) | 26.9 µM (inactive) | 
CCOC(=O)N[C@H]1CCc2cc(O)c(OC)c(OC)c2-c2ccc(SC)c(=O)cc21 |  | < 0.0122 µM (active) | 0.0128 µM (active) | 0.0193 µM (active) | 0.0207 µM (active) | 0.0351 µM (active) | 0.0189 µM (active) | < 0.01 µM (active) | 0.0261 µM (active)
CN1CCN(CCSC2Cc3cc(Cl)ccc3Sc3ccccc32)CC1 (centres undefined) | 9.1 µM (inactive) | 2.89 µM (inactive) | 1.74 µM (inactive) | 4.9 µM (inactive) |  | 3.7 µM (inactive) | 2.13 µM (inactive) |  | 3.03 µM (inactive)
CCOc1ccc(NC2=NC(=O)C(CC(=O)Nc3ccc(Cl)cc3Cl)S2)cc1 (centres undefined) |  | > 100 µM (inactive) | > 100 µM (inactive) | > 100 µM (inactive) | > 100 µM (inactive) | > 100 µM (inactive) | > 100 µM (inactive) | > 100 µM (inactive) | > 100 µM (inactive)
CCCCOC(=O)NC(=O)c1cn(CCSCCOC(=O)NCCCCCCNC(=O)OCCSCCn2cc(C(=O)NC(=O)OCCCC)c(=O)[nH]c2=O)c(=O)[nH]c1=O | 31.6 µM (inactive) | 27 µM (inactive) | > 100 µM (inactive) | 93.8 µM (inactive) | 38.4 µM (inactive) | > 100 µM (inactive) | > 100 µM (inactive) | 90.4 µM (inactive) | 
FC(F)(F)c1ccccc1C1SCc2nc3ccccc3n21 (centres undefined) | > 100 µM (inactive) | 99.8 µM (inactive) |  | 33 µM (inactive) |  | 52.2 µM (inactive) | 43.3 µM (inactive) | > 100 µM (inactive) | 
COc1ccc(NC(=O)C(=O)C2CNC(=O)NC2=O)c(OC)c1 (centres undefined) | > 100 µM (inactive) | > 100 µM (inactive) | > 100 µM (inactive) | > 100 µM (inactive) |  | > 100 µM (inactive) |  | > 100 µM (inactive) | > 100 µM (inactive)
COc1cc2ccc(CC(=O)O)cc2cc1OC | > 100 µM (inactive) | > 100 µM (inactive) | > 100 µM (inactive) | > 100 µM (inactive) | > 100 µM (inactive) | > 100 µM (inactive) | > 100 µM (inactive) | > 100 µM (inactive) | 
COC(=O)[C@@]12CC(C(C)C)[C@H]3CC(C(=O)C=C1OC)[C@H]32 (some centres undefined) | > 100 µM (inactive) | > 100 µM (inactive) | > 100 µM (inactive) | > 100 µM (inactive) | > 100 µM (inactive) | > 100 µM (inactive) | > 100 µM (inactive) | > 100 µM (inactive) | > 100 µM (inactive)
CN(C)CCC(=O)N1C/C(=C\c2ccc(Cl)c(Cl)c2)C(=O)/C(=C/c2ccc(Cl)c(Cl)c2)C1 | 1.02 µM (active) | 0.211 µM (active) | 0.577 µM (active) | 0.452 µM (active) | 0.455 µM (active) | 0.157 µM (active) | 0.427 µM (active) | 0.476 µM (active) | 1.12 µM (active)
Cc1ccc(C(=O)c2nnc(C(=O)c3ccc(C)cc3)nn2)cc1 | 33.4 µM (inactive) | 53.2 µM (inactive) | 65.9 µM (inactive) |  |  | 43.2 µM (inactive) | 26.1 µM (inactive) | > 100 µM (inactive) | 
Oc1ccccc1/C=N/c1ccccc1/N=C/c1ccccc1O |  | 31.7 µM (inactive) | > 100 µM (inactive) | 8.89 µM (inactive) |  |  | > 100 µM (inactive) |  | 47.6 µM (inactive)
Cc1ccc(C(=O)N(C2CCCCC2)C2CCCCC2)cc1/N=N/N(C)C |  | 14.6 µM (inactive) |  |  |  | 14.7 µM (inactive) | 19.1 µM (inactive) | 15.8 µM (inactive) | 
Cc1ccc(-c2c(N)nc(NC#N)nc2CCC(=O)Nc2ccccc2[N+](=O)[O-])cc1 | > 100 µM (inactive) | > 100 µM (inactive) | > 100 µM (inactive) | > 100 µM (inactive) |  | > 100 µM (inactive) | > 100 µM (inactive) | > 100 µM (inactive) | 
CCOC(=O)N1c2c(ccn2C)-c2ccn(C)c2N1C(=O)OCC |  | 17.2 µM (inactive) | 14.6 µM (inactive) | > 10 µM (inactive) | 18.9 µM (inactive) | 13.6 µM (inactive) | 26.4 µM (inactive) |  | 17 µM (inactive)
NC(=O)c1cc(C2OC(CO)C(O)C2O)nn1-c1ccc([N+](=O)[O-])cc1 (centres undefined) | > 100 µM (inactive) | > 100 µM (inactive) | > 100 µM (inactive) | > 100 µM (inactive) |  | > 100 µM (inactive) |  | 36.7 µM (inactive) | > 100 µM (inactive)
N=CCCN(CCC=N)c1ccc(/C=C2\CN(NC(=O)c3ccc(Cl)cc3)C(c3ccccc3)=N2)cc1 | > 100 µM (inactive) | > 100 µM (inactive) | > 100 µM (inactive) | > 100 µM (inactive) | > 100 µM (inactive) | > 100 µM (inactive) |  | > 100 µM (inactive) | 
COC(=O)C1(O)CC(=O)CCC1c1ccc(OC)cc1 (centres undefined) | > 100 µM (inactive) |  | > 100 µM (inactive) | > 100 µM (inactive) | > 100 µM (inactive) | > 100 µM (inactive) |  | > 100 µM (inactive) | 
CC(=O)C1=CCC2c3[nH]c4ccccc4c3CCN2C1 (centres undefined) | > 100 µM (inactive) | 66.8 µM (inactive) | 21 µM (inactive) |  | 45.4 µM (inactive) | 70.3 µM (inactive) | > 100 µM (inactive) | 32.1 µM (inactive) | 62.5 µM (inactive)
CCOC(=O)C1C(c2ccccc2)=C(c2ccccc2)C(c2ccccc2)=C1c1ccccc1 | 23.7 µM (inactive) | 41.8 µM (inactive) | > 100 µM (inactive) | 27.8 µM (inactive) | 50.5 µM (inactive) | > 100 µM (inactive) | 41.4 µM (inactive) | 27.5 µM (inactive) | 21.9 µM (inactive)
CCN1C(=O)C/C(=C\C(C)=O)Nc2ccccc21 |  | > 100 µM (inactive) |  | > 100 µM (inactive) |  | 18.9 µM (inactive) | > 100 µM (inactive) | > 100 µM (inactive) | > 100 µM (inactive)
O=C(O)CN(c1ccccc1)S(=O)(=O)c1ccc(Cl)cc1 | > 100 µM (inactive) | > 100 µM (inactive) | > 100 µM (inactive) |  | > 100 µM (inactive) | > 100 µM (inactive) | > 100 µM (inactive) |  | 
O=C(N[C@H](CO)[C@H](O)c1ccc([N+](=O)[O-])cc1)C(Cl)Cl [CHLORAMPHENICOL] |  | > 100 µM (inactive) | > 100 µM (inactive) | > 100 µM (inactive) |  | > 100 µM (inactive) | > 100 µM (inactive) |  | 
C[C@@H]1O[C@@H](O[C@H]2[C@H](Oc3cc(O)c4c(=O)cc(-c5ccc(O)cc5)oc4c3)O[C@H](CO)[C@@H](O)[C@@H]2O)[C@H](O)[C@H](O)[C@H]1O [RHOIFOLIN] | > 100 µM (inactive) | > 100 µM (inactive) | > 100 µM (inactive) | > 100 µM (inactive) |  | > 100 µM (inactive) | > 100 µM (inactive) | > 100 µM (inactive) | > 100 µM (inactive)
